Assay results taken from patent US20090076142A1, “USE OF THE IRRITATING PRINCIPAL OLEOCANTHAL IN OLIVE OIL, AS WELL AS STRUCTURALLY AND FUNCTIONALLY SIMILAR COMPOUNDS” (The Trustees of the University of Pennsylvania, priority 2005, published 2009).

Assays:
[1] = biological target: T1, soybean 15-lipoxygenase (Glycine max, UniProt P08170); assay: 15-lipoxygenase inhibition assay (Cayman Chemicals kit); type: biochemical; details: mean ± SEM, three independent experiments, read-out: Percent inhibition of 15-LO
T1 construct: purchased Cayman Chemicals
T1 sequence (P08170 1-839): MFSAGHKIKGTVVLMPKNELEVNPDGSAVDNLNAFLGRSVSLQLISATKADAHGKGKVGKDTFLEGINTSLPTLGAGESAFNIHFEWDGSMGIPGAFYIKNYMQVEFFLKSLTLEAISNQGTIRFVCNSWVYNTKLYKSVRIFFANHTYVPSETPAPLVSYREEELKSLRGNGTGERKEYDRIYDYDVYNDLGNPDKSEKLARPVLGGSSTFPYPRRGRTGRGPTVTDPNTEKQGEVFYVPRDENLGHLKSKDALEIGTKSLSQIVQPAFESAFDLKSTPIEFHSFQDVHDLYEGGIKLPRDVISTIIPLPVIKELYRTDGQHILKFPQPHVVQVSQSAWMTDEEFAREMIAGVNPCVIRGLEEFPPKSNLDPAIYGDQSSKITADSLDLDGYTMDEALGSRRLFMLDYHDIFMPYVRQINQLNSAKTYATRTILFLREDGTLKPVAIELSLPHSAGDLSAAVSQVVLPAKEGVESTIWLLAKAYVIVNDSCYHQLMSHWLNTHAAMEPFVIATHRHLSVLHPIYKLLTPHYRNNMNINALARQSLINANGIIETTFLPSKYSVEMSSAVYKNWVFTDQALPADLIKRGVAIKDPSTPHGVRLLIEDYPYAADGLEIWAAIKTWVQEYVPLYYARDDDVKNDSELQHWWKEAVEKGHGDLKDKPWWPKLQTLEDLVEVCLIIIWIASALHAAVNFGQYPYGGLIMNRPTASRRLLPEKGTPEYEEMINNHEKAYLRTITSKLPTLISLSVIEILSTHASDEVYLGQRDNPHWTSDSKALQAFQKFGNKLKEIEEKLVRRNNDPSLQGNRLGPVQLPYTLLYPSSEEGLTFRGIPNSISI

[2] = tested on: throat irritation; assay: Throat irritation sensory test, two-alternative forced-choice, compound in corn oil; type: in vivo, human
Method: Testing was double-blind and each was exposed to three sets of two samples, one of which was added synthesized oleocanthal and the other served as the blank control. The task was to indicated which of the pair was more irritating. […] Importantly, the effect was dose dependent (FIG. 2 open triangles, dashed line). Ten subjects were tested with non-irritating commercial corn oils presented neat and mixed with either synthesized (−)-oleocanthal or the bitter agent sucrose octaacetate (SOA) (Sigma-Aldrich). […] (−)-Oleocanthal was tested at the highest concentration identified in the ten rated oils, 200 μg/ml, and at one half and whole log steps more dilute 63.25 and 20 μg/ml. SOA was added to the corn oil (4×10^−4, 1×10^−4, 5×10^−5 M) to intensity match the irritation of the three levels of (−)-oleocanthal. Subjects participated in two-alternative forced-choice (2AFC) trials (four trials at every concentration for each subject) and in intensity ratings sessions (four ratings per each oil). For the 2AFC trials subjects were presented with two 3.0 ml corn oil samples with matching intensities of SOA and (−)-oleocanthal in ascending order, and were required to sample oils as described above. While blind to stimulus position, subjects were asked two questions on each trial, “Which of the two oils was more irritating in the throat?” and “Which one was more bitter?” At the 20 μg/ml & 5×10^−5 M level most subjects reported on some trials that the same oil was both the more irritating and the more bitter of the two. […] Subjects performed at chance when selecting among two unadulterated corn oils, when the correct choice was randomly assigned prior to testing. […] The other two concentrations were correct 39/40 and 40/40 trials. For the intensity rating trials subjects were presented with all eight oils in ascending order, counterbalanced for stimulus order and asked to rate the throat irritation and bitterness of every oil on a general labeled magnitude scale.

[3] = biological target: T2, human recombinant COX-2 (Homo sapiens, UniProt P35354); assay: Cyclooxygenase COX-2 inhibition assay (Cayman Chemicals kit); type: biochemical; details: for inhibition at 7 µM / inhibition at 25 µM / inhibition at 100 µM: mean ± SEM, three independent experiments, read-out: Percent inhibition of COX-2; for IC50: least squares regression analysis of inhibition vs. concentration, read-out: calculated IC50 for COX-2
T2 construct: purchased Cayman Chemicals
T2 sequence (P35354 18-604): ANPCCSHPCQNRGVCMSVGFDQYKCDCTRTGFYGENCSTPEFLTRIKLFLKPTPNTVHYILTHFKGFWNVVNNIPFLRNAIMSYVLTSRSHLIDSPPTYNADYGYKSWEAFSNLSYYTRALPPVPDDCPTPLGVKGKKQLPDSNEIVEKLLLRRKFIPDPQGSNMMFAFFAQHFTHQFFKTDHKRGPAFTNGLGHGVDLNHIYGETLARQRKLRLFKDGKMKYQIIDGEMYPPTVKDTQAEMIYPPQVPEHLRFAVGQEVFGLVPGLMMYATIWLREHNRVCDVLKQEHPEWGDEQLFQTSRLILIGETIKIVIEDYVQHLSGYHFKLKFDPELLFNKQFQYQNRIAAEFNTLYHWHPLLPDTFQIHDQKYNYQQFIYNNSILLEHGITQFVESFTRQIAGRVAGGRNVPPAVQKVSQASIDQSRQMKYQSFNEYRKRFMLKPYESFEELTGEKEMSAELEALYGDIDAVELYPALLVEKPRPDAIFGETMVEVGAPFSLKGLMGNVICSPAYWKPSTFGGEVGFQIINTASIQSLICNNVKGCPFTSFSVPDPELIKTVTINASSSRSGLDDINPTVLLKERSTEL

[4] = biological target: T3, ovine COX-1 (Ovis aries, UniProt P05979); assay: Cyclooxygenase COX-1 inhibition assay (Cayman Chemicals kit); type: biochemical; details: for inhibition at 7 µM / inhibition at 25 µM / inhibition at 100 µM: mean ± SEM, three independent experiments, read-out: Percent inhibition of COX-1; for IC50: least squares regression analysis of inhibition vs. concentration, read-out: calculated IC50 for COX-1
T3 construct: purchased Cayman Chemicals
T3 sequence (P05979 25-600): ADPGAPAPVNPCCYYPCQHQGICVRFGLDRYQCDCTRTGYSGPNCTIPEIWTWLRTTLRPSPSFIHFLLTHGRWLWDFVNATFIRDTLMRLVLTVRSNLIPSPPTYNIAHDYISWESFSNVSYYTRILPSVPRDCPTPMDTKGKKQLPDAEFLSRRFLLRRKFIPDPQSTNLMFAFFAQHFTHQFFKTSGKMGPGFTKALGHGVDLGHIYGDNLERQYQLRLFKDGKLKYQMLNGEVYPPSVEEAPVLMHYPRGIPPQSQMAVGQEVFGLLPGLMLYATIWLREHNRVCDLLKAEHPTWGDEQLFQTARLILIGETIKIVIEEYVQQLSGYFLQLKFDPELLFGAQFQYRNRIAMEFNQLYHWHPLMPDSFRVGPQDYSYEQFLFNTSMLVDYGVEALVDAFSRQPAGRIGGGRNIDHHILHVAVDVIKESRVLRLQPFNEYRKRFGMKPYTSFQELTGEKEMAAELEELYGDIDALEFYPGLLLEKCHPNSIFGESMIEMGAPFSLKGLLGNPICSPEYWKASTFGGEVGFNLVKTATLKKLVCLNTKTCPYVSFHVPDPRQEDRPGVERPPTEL

Q: How did the inhibition at 7 µM [1] turn out when `C/C=C(/C=O)[C@@H](CC=O)CC(=O)OCCc1ccc(O)cc1` [Oleocanthal (−), 2-(4-hydroxyphenyl)ethyl, 4-formyl-3-(2-oxoethyl)-4-hexenoic acid ester] was run?
A: 0%

Q: What about the inhibition at 25 µM [1] of the same molecule?
A: 0%

Q: What about the inhibition at 100 µM [1] of the same molecule?
A: 0.4 ± 0.8%

Q: What about the “correct 2AFC trials (more irritating in the throat)” value ([2]; 20 μg/ml in corn oil vs SOA, ten subjects) of the same molecule?
A: 24 out of 40

Q: And the “detection threshold level of throat irritation in corn oil” value ([2]; corn oil, ten subjects)?
A: ~20 µg/mL

Q: And the “throat irritation compared with oleocanthal isolated from premium olive oil” value ([2]; synthetic compound in corn oil)?
A: identical to oleocanthal isolated from premium olive oil

Q: And the “correct identification of the more irritating sample (2AFC)” value ([2]; three evaluators, three presentations, corn oil, approximately twice the concentration found in Falconaro olive oil, p<0.01)?
A: 9 of 9

Q: What about the inhibition at 7 µM [3] of the same molecule?
A: 14.5 ± 2.3%

Q: And the inhibition at 25 µM [3]?
A: 56.6 ± 9.5%

Q: And the inhibition at 100 µM [3]?
A: 70.9 ± 8.6%

Q: And the IC50 [3]?
A: 29.4 µM

Q: What about the inhibition at 7 µM [4] of the same molecule?
A: 24.6 ± 7.3%

Q: And the inhibition at 25 µM [4]?
A: 56.1 ± 3.2%

Q: What about the inhibition at 100 µM [4] of the same molecule?
A: 83.5 ± 3.5%

Q: What about the IC50 [4] of the same molecule?
A: 21.4 µM

Q: Which inhibition at 7 µM [1] does the source give for `CC=C(C=O)C(CC=O)CC(=O)OCCc1ccc(O)cc1` (single isomer, unassigned) [Oleocanthal (+)] here?
A: 0%

Q: And the inhibition at 25 µM [1]?
A: 0.7 ± 1%

Q: And the inhibition at 100 µM [1]?
A: 3.5 ± 5.5%

Q: What about the inhibition at 7 µM [3] of the same molecule?
A: 6.1 ± 4.2%

Q: What about the inhibition at 25 µM [3] of the same molecule?
A: 41.3 ± 15.9%

Q: And the inhibition at 100 µM [3]?
A: 69.6 ± 3.9%

Q: What about the IC50 [3] of the same molecule?
A: 40.5 µM

Q: What about the inhibition at 7 µM [4] of the same molecule?
A: 24.6 ± 7.5%

Q: What about the inhibition at 25 µM [4] of the same molecule?
A: 54.5 ± 4.6%

Q: And the inhibition at 100 µM [4]?
A: 68 ± 15.2%

Q: What about the IC50 [4] of the same molecule?
A: 27.9 µM

Q: With `COc1ccc2c(c1)c(CC(=O)O)c(C)n2C(=O)c1ccc(Cl)cc1` [Indomethacin, reference compound] as the molecule, how does the inhibition at 7 µM [1] read?
A: 0.5 ± 0.1%

Q: What about the inhibition at 25 µM [1] of the same molecule?
A: 0.1 ± 0.9%

Q: Which inhibition at 7 µM [1] does the source give for `O=C(O)/C=C/c1ccc(O)c(O)c1` [Caffeic Acid, caffeic acid, reference compound] here?
A: 19.8 ± 1.3%

Q: What about the inhibition at 25 µM [1] of the same molecule?
A: 25.2 ± 2.2%
